According to PubChem BioAssay (NCI):
Where “and” joins values, the source holds several entries; their conditions need not be identical. Identical values can stand only once.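 Following 48 hours of exposure in 96-well plates, responses at five concentrations were used to interpolate endpoints linearly. GI50 = concentration required for 50% inhibition of growth. Definition used: TGI = concentration required for complete inhibition of growth.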

Key:
Test in all cases: NCI anticancer screen, dose series, 48 h
NCI-H226 lung = system: NCI-H226 lung
UACC-62 melanoma = system: UACC-62 melanoma
HCC-2998 colon = system: HCC-2998 colon
SR leukemia = system: SR leukemia
TK-10 renal = system: TK-10 renal
HCT-116 colon = system: HCT-116 colon
KM12 colon = system: KM12 colon
HOP-92 NSCLC = system: HOP-92 NSCLC
A549 NSCLC = system: A549 NSCLC
SF-268 CNS = system: SF-268 CNS

Structure (SMILES) | TGI (NCI-H226 lung) | TGI (UACC-62 melanoma) | TGI (HCC-2998 colon) | TGI (SR leukemia) | TGI (TK-10 renal) | TGI (HCT-116 colon) | TGI (KM12 colon) | TGI (HOP-92 NSCLC) | TGI (A549 NSCLC) | TGI (SF-268 CNS) | GI50 (NCI-H226 lung) | GI50 (UACC-62 melanoma) | GI50 (HCC-2998 colon) | GI50 (SR leukemia) | GI50 (TK-10 renal) | GI50 (HCT-116 colon) | GI50 (KM12 colon) | GI50 (HOP-92 NSCLC) | GI50 (A549 NSCLC) | GI50 (SF-268 CNS)
NC(=O)c1ncn(C2OC(CO)C(O)C2O)c1O (stereo not given) | > 100 µM | > 100 µM | > 100 µM | > 100 µM | > 100 µM | > 100 µM | > 100 µM | > 100 µM | > 100 µM | > 100 µM | – | – | – | – | – | – | – | – | – | –
CSc1nnc(C(C#N)C#N)nn1 | > 100 µM | > 100 µM | > 100 µM | > 100 µM | > 100 µM | > 100 µM | > 100 µM | > 100 µM | > 100 µM | > 100 µM | – | – | – | – | – | – | – | – | – | –
Cc1ccc(Nc2nc(-c3ccc(-c4ccc([N+](=O)[O-])cc4)o3)cs2)cc1 | > 100 µM | > 100 µM | 97 µM | > 100 µM | > 100 µM | > 100 µM | > 100 µM | > 100 µM | > 100 µM | > 100 µM | – | – | – | – | – | – | – | – | – | –
O=C1/C(=C/c2ccc(C(F)(F)F)cc2)COc2ccc(O)c(O)c21 | 3.09 µM | 2.87 µM | 3.16 µM | 2.53 µM | 3.03 µM | 3.12 µM | 3.84 µM | 6.67 µM | 3.15 µM | 3.83 µM | 1.59 µM | 1.48 µM | 1.7 µM | 0.267 µM | 1.64 µM | 1.35 µM | 1.7 µM | 1.97 µM | 1.51 µM | 1.67 µM
CCC(c1ccccc1)c1cc(C(C)(C)C)cc(C(C)(C)C)c1O (stereo not given) | 35.1 µM | 32.2 µM | 29.2 µM | > 100 µM | 28.8 µM | 25.5 µM | 32.3 µM | 30.1 µM | 29.8 µM | 28.9 µM | – | – | – | – | – | – | – | – | – | –
O=C1/C(=C/c2ccc([N+](=O)[O-])o2)Oc2ccc(Cl)cc21 | 3.97 µM | 3.41 µM | 4.56 µM | 1.26 µM | 3.85 µM | 2.01 µM | 3.68 µM | 3.31 µM | 59.1 µM | 3.77 µM | 1.78 µM | 1.58 µM | 2.18 µM | 0.267 µM | 2.14 µM | 0.648 µM | 1.88 µM | 1.45 µM | 6.45 µM | 1.84 µM
CC(=O)c1c(C)c2cnc(Nc3ccc(N4CCNCC4)cn3)nc2n(C2CCCC2)c1=O | 22.4 µM | 23.9 µM | 23.9 µM | 20.7 µM | 16.3 µM | 16.3 µM | 13.9 µM | 22.8 µM | 19.2 µM | 25.3 µM | 6.07 µM | 11 µM | 10.6 µM | 1.88 µM | 0.533 µM | 3.07 µM | 0.623 µM | 0.803 µM | 3.69 µM | 10.7 µM
CC1(C)C(=O)/C=C\C(=O)C(C)(C)C(=O)/C=C\C(=O)C(C)(C)C2=CC=C(O2)C(C)(C)C(=O)/C=C\C1=O | 18.1 µM | 15.7 µM | 24.1 µM | 4.05 µM | 13.4 µM | 5 µM | 19.8 µM | 3.9 µM | 49.7 µM | 43.8 µM | – | – | – | – | – | – | – | – | – | –
CCOC(=O)/C=C1/SC(=Nc2ccc(C#N)cc2)N(Cc2ccco2)C1=O | 4.76 µM | 5.25 µM | 15.8 µM | 8.41 µM | 8.19 µM | 4.97 µM | 5.01 µM | 22.9 µM | 26.1 µM | 13.7 µM | 2.22 µM | 2.23 µM | 3.67 µM | 2.71 µM | 2.54 µM | 2.06 µM | 2.13 µM | 4.51 µM | 10.4 µM | 3.38 µM
Cc1cc(N(CCNc2ccnc3cc(Cl)ccc23)Cc2ccc3c(c2)OCO3)nc(N2CCCC2)n1 | 6.86 µM | 3.49 µM | 3.9 µM | 0.635 µM | 3.8 µM | 2.14 µM | 11.5 µM | 2.86 µM | 4.96 µM | 7.16 µM | 2.46 µM | 1.88 µM | 1.89 µM | 0.25 µM | 1.74 µM | 0.532 µM | 2.7 µM | 0.695 µM | 1.67 µM | 2.2 µM
CNc1cc(-c2cccc(OC(F)(F)F)c2)nc2ccc(N3CCCC3)cc12 | 4.58 µM and 3.77 µM | 3.36 µM and 3.16 µM and 3.18 µM | 3.5 µM and 3.48 µM and 3.23 µM | 1.78 µM and 4.22 µM | 3.39 µM and 3.2 µM and 3.24 µM | 2.58 µM and 3.32 µM and 2.52 µM | 3.4 µM and 3.35 µM and 3.51 µM | 2.55 µM and 2.64 µM and 2.58 µM | 3.26 µM and 3.03 µM and 3.27 µM | 3.51 µM and 3.77 µM | 2.49 µM and 1.88 µM | 1.75 µM and 1.76 µM and 1.7 µM | 1.93 µM and 1.94 µM and 1.75 µM | 0.31 µM and 1.56 µM | 1.94 µM and 1.78 µM and 1.8 µM | 1.3 µM and 1.79 µM and 1.21 µM | 1.81 µM and 1.76 µM and 1.89 µM | 1.22 µM and 1.3 µM and 1.24 µM | 1.79 µM and 1.66 µM and 1.75 µM | 1.94 µM and 1.88 µM and 1.87 µM
CSc1nc2c(c(=O)n1C)C(c1ccccc1)C1=C(N2)/C(=C/c2ccccc2)CCC1 (stereo not given) | > 100 µM | > 100 µM | > 100 µM | > 100 µM | > 100 µM | 14.3 µM | > 100 µM | > 100 µM | > 100 µM | > 100 µM | 18.4 µM | 7.95 µM | > 100 µM | 1.89 µM | 20.9 µM | 3.41 µM | 18.2 µM | 36.6 µM | > 100 µM | 10.7 µM
Cc1c(-c2ccccn2)ccc2ccccc12 | > 100 µM | > 100 µM | > 100 µM | > 100 µM | > 100 µM | > 100 µM | > 100 µM | > 100 µM | > 100 µM | > 100 µM | – | – | – | – | – | – | – | – | – | –
CN(C)N=Nc1ccc(S(N)(=O)=O)cc1 | > 100 µM | > 100 µM | > 100 µM | > 100 µM | > 100 µM | > 100 µM | > 100 µM | > 100 µM | > 100 µM | > 100 µM | – | – | – | – | – | – | – | – | – | –
CC/C=C\C[C@H]1C/C=C2/C(=O)C(Cl)=C[C@@H]2C/C=C\CCCC(=O)O1 | 1.56 µM | 1.2 µM | 0.826 µM | 4.93 µM | 1.41 µM | 0.859 µM | 1.07 µM | 1.6 µM | 2.75 µM | 2.39 µM | 0.524 µM | 0.28 µM | 0.437 µM | 0.0753 µM | 0.597 µM | 0.205 µM | 0.403 µM | 0.499 µM | 0.748 µM | 0.496 µM
